Data reported in ChEMBL document CHEMBL4376834, “Discovery of 4H-Chromen-4-one Derivatives as a New Class of Selective Rho Kinase (ROCK) Inhibitors, which Showed Potent Activity in ex Vivo Diabetic Retinopathy Models” (J Med Chem, 2019).

Legend:
[1] = molecular target: Dual specificity mitogen-activated protein kinase kinase 2 (Homo sapiens, UniProt P36507); experiment: Inhibition of recombinant full length human MEK2 using MBP as substrate incubated for 40 mins in presence of [gamma-33ATP by radiometric scintillation counting analysis
[2] = molecular target: Protein-tyrosine kinase 6 (Homo sapiens, UniProt Q13882); experiment: Inhibition of recombinant full length human BRK using poly(Glu, Tyr) 4:1 as substrate incubated for 40 mins in presence of [gamma-33ATP] by radiometric scintillation counting analysis
[3] = molecular target: Dual specificity protein kinase CLK1 (Homo sapiens, UniProt P49759); experiment: Inhibition of recombinant human CLK1 (130 to end residues) using ERMRPRKRQGSVR as substrate incubated 40 mins in presence of [gamma-33ATP] by radiometric scintillation counting analysis
[4] = molecular target: Glycogen synthase kinase-3 beta (Homo sapiens, UniProt P49841); experiment: Inhibition of human GSK-3beta H350L mutant (2 to end residues) using YRRAAVPPSPSLSR as substrate after 40 mins by [gamma-33ATP] radiometric assay
[5] = molecular target: Tyrosine-protein kinase Fyn (Homo sapiens, UniProt P06241); experiment: Inhibition of recombinant full length human Fyn using […] as substrate after 40 mins in presence of [gamma-33ATP] by radiometric scintillation counting analysis
[6] = molecular target: PAS domain-containing serine/threonine-protein kinase (Homo sapiens, UniProt Q96RG2); experiment: Inhibition of recombinant human PASK (995 to end residues) using KKLNRTLSFAEPG as substrate measured after 40 mins in presence of [gamma33P]ATP by radiometric scintillation counting analysis
[7] = molecular target: Serine/threonine-protein kinase Nek2 (Homo sapiens, UniProt P51955); experiment: Inhibition of recombinant full-length human NEK2 using myelin basic protein as substrate measured after 40 mins in presence of [gamma33P]ATP by radiometric scintillation counting analysis
[8] = molecular target: Serine/threonine-protein kinase/endoribonuclease IRE1 (Homo sapiens, UniProt O75460); experiment: Inhibition of human recombinant IRE1 (465 to end residues) using myelin basic protein as substrate after 40 mins by [gamma-33ATP] by radiometric scintillation counting analysis
[9] = Inhibition of human SNRK E97G/P116A double mutant (65 to 409 residues) using KKLRRTLSFAEPG as substrate incubated for 40 mins in presence of [gamma33P]ATP by radiometric scintillation counting analysis
[10] = molecular target: CDK2/Cyclin A1 (Homo sapiens, UniProt P24941); experiment: Inhibition of recombinant full length human CDK2/CyclinA using Histone H1 as substrate incubated for 40 mins in presence of [gamma-33ATP] by radiometric scintillation counting analysis; assay type: protein-complex assay
[11] = molecular target: Serine/threonine-protein kinase Nek7 (Homo sapiens, UniProt Q8TDX7); experiment: Inhibition of recombinant human NEK7 (2 to end residues) using FLAKSFGSPNRAYKK as substrate measured after 40 mins in presence of [gamma33P]ATP by radiometric scintillation counting analysis
[12] = molecular target: Epidermal growth factor receptor (Homo sapiens, UniProt P00533, L858R); experiment: Inhibition of recombinant human EGFR L858R mutant (696 to end residues) using poly(Glu, Tyr) 4:1 as substrate after 40 mins in presence of [gamma-33ATP] by radiometric scintillation counting analysis
[13] = molecular target: cGMP-dependent protein kinase 1 (Homo sapiens, UniProt Q13976); experiment: Inhibition of recombinant full length human PKG1beta using RRRLSFAEPG as substrate incubated for 40 mins in presence of [gamma-33P]ATP by radiometric scintillation counting analysis
[14] = molecular target: Platelet-derived growth factor receptor alpha (Homo sapiens, UniProt P16234, D842V); experiment: Inhibition of human PDGFRalpha D842V mutant (550 to end residues) using GGMEDIYFEFMGG as substrate measured after 40 mins in presence of [gamma33P]ATP by radiometric scintillation counting analysis
[15] = molecular target: Serine/threonine-protein kinase 16 (Homo sapiens, UniProt O75716); experiment: Inhibition of human STK16 in presence of 10 uM ATP by radiometric analysis
[16] = molecular target: Protein kinase C epsilon type (Homo sapiens, UniProt Q02156); experiment: Inhibition of recombinant human PKCepsilon (2 to end residues) using ERMRPRKRQGSVRR as substrate incubated for 40 mins in presence of [gamma33P]ATP by radiometric scintillation counting analysis
[17] = molecular target: Serine/threonine-protein kinase WNK1 (Homo sapiens, UniProt Q9H4A3); experiment: Inhibition of recombinant human WNK1 (1 to 491 residues) using myelin basic protein as substrate incubated for 40 mins in presence of [gamma33P]ATP by radiometric scintillation counting analysis
[18] = Inhibition of recombinant human FLT4 V1128L/H1146R double mutant (800 to end residues) using GGEEEEYFELVKK as substrate after 40 mins in presence of [gamma-33ATP] by radiometric scintillation counting analysis
[19] = molecular target: Mitogen-activated protein kinase 12 (Homo sapiens, UniProt P53778); experiment: Inhibition of recombinant human full length SAPK3 using myelin basic protein as substrate incubated for 40 mins in presence of [gamma33P]ATP by radiometric scintillation counting analysis
[20] = molecular target: BDNF/NT-3 growth factors receptor (Homo sapiens, UniProt Q16620); experiment: Inhibition of recombinant human TRKB (455 to end residues) using poly(Glu, Tyr) 4:1 as substrate incubated for 40 mins in presence of [gamma33P]ATP by radiometric scintillation counting analysis
[21] = molecular target: Proto-oncogene tyrosine-protein kinase Src (Homo sapiens, UniProt P12931); experiment: Inhibition of recombinant human SRC (1 to 530 residues) using GGEEEEYFELVKK as substrate incubated for 40 mins in presence of [gamma33P]ATP by radiometric scintillation counting analysis
[22] = molecular target: Serine/threonine-protein kinase 33 (Homo sapiens, UniProt Q9BYT3); experiment: Inhibition of recombinant full-length human STK33 using myelin basic protein as substrate incubated for 40 mins in presence of [gamma33P]ATP by radiometric scintillation counting analysis
[23] = molecular target: Receptor-interacting serine/threonine-protein kinase 2 (Homo sapiens, UniProt O43353); experiment: Inhibition of recombinant human RIPK2 (1 to 299 residues) using MBP as substrate incubated for 120 mins in presence of [gamma33P]ATP by radiometric scintillation counting analysis
[24] = molecular target: Serine/threonine-protein kinase TAO3 (Homo sapiens, UniProt Q9H2K8); experiment: Inhibition of recombinant human TAO3 N47S mutant (1 to 411 residues) using myelin basic protein as substrate incubated for 40 mins in presence of [gamma33P]ATP by radiometric scintillation counting analysis
[25] = molecular target: Wee1-like protein kinase (Homo sapiens, UniProt P30291); experiment: Inhibition of recombinant human WEE1 (214 to end residues) using LSNLYHQGKFLQT as substrate incubated for 40 mins in presence of [gamma33P]ATP by radiometric scintillation counting analysis
[26] = molecular target: Cyclin-dependent kinase 2/cyclin E1 (Homo sapiens, UniProt P24941); experiment: Inhibition of recombinant full length human CDK2/CyclinE using Histone H1 as substrate incubated for 40 mins in presence of [gamma-33ATP] by radiometric scintillation counting analysis; assay type: protein-complex assay

Measured: IC50

Sequence of Tyrosine-protein kinase Fyn (P06241 whole entry, the tested form may be a part): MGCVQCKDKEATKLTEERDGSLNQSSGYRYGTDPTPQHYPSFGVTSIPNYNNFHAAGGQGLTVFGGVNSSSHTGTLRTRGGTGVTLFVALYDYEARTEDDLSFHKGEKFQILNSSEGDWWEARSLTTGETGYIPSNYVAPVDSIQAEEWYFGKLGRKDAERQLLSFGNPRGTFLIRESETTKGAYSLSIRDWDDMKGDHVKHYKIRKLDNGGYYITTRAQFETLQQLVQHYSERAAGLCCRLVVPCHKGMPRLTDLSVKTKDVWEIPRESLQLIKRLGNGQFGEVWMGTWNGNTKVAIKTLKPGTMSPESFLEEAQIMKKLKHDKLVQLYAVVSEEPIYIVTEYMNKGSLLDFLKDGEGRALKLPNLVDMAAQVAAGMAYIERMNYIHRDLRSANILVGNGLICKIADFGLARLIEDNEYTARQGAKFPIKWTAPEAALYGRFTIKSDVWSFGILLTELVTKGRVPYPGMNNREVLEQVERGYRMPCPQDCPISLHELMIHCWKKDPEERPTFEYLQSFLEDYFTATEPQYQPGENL
Sequence of Glycogen synthase kinase-3 beta (P49841 whole entry): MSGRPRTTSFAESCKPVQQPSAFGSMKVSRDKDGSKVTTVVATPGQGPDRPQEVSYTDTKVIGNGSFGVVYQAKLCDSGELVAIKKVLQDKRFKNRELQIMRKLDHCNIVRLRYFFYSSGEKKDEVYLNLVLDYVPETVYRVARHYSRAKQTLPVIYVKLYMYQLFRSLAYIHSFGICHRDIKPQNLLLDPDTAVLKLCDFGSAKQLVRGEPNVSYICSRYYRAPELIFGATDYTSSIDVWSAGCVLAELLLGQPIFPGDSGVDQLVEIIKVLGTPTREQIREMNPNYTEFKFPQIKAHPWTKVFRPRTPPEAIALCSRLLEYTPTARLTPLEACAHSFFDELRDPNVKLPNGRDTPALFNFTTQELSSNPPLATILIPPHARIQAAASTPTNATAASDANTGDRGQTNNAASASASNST
Sequence of Epidermal growth factor receptor (P00533 25-1210 L858R limits assumed): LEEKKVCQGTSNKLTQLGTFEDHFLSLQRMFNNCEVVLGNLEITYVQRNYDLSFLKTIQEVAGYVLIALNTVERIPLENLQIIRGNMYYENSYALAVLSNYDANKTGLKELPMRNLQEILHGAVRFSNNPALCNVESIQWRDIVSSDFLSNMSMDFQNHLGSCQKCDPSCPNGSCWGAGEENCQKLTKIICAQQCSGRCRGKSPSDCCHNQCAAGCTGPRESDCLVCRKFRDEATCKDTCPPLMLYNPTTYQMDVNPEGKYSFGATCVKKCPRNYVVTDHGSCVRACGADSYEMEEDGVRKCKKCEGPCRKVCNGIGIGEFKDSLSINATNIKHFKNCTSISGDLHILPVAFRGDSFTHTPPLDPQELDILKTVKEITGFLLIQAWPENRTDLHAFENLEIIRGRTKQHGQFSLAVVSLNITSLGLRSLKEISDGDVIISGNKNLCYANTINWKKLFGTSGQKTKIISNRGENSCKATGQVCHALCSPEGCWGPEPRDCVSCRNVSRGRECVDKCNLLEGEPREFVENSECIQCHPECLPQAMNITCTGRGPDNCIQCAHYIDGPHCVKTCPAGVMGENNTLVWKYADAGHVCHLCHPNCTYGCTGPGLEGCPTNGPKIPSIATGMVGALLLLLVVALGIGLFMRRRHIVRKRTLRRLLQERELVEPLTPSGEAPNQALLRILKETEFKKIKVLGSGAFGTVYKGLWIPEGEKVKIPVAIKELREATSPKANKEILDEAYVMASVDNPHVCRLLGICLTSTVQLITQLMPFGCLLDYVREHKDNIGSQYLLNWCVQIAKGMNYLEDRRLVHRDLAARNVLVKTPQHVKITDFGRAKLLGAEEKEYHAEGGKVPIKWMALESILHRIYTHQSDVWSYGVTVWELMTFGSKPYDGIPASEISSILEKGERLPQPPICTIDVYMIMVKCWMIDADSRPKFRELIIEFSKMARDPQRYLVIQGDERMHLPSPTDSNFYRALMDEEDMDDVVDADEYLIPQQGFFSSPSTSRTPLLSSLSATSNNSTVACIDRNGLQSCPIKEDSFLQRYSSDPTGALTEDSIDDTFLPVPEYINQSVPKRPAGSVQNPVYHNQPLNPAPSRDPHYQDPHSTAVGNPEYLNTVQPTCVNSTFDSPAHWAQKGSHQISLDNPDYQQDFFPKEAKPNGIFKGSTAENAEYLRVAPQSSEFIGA
Sequence of Serine/threonine-protein kinase WNK1 (Q9H4A3 whole entry, the tested form may be a part): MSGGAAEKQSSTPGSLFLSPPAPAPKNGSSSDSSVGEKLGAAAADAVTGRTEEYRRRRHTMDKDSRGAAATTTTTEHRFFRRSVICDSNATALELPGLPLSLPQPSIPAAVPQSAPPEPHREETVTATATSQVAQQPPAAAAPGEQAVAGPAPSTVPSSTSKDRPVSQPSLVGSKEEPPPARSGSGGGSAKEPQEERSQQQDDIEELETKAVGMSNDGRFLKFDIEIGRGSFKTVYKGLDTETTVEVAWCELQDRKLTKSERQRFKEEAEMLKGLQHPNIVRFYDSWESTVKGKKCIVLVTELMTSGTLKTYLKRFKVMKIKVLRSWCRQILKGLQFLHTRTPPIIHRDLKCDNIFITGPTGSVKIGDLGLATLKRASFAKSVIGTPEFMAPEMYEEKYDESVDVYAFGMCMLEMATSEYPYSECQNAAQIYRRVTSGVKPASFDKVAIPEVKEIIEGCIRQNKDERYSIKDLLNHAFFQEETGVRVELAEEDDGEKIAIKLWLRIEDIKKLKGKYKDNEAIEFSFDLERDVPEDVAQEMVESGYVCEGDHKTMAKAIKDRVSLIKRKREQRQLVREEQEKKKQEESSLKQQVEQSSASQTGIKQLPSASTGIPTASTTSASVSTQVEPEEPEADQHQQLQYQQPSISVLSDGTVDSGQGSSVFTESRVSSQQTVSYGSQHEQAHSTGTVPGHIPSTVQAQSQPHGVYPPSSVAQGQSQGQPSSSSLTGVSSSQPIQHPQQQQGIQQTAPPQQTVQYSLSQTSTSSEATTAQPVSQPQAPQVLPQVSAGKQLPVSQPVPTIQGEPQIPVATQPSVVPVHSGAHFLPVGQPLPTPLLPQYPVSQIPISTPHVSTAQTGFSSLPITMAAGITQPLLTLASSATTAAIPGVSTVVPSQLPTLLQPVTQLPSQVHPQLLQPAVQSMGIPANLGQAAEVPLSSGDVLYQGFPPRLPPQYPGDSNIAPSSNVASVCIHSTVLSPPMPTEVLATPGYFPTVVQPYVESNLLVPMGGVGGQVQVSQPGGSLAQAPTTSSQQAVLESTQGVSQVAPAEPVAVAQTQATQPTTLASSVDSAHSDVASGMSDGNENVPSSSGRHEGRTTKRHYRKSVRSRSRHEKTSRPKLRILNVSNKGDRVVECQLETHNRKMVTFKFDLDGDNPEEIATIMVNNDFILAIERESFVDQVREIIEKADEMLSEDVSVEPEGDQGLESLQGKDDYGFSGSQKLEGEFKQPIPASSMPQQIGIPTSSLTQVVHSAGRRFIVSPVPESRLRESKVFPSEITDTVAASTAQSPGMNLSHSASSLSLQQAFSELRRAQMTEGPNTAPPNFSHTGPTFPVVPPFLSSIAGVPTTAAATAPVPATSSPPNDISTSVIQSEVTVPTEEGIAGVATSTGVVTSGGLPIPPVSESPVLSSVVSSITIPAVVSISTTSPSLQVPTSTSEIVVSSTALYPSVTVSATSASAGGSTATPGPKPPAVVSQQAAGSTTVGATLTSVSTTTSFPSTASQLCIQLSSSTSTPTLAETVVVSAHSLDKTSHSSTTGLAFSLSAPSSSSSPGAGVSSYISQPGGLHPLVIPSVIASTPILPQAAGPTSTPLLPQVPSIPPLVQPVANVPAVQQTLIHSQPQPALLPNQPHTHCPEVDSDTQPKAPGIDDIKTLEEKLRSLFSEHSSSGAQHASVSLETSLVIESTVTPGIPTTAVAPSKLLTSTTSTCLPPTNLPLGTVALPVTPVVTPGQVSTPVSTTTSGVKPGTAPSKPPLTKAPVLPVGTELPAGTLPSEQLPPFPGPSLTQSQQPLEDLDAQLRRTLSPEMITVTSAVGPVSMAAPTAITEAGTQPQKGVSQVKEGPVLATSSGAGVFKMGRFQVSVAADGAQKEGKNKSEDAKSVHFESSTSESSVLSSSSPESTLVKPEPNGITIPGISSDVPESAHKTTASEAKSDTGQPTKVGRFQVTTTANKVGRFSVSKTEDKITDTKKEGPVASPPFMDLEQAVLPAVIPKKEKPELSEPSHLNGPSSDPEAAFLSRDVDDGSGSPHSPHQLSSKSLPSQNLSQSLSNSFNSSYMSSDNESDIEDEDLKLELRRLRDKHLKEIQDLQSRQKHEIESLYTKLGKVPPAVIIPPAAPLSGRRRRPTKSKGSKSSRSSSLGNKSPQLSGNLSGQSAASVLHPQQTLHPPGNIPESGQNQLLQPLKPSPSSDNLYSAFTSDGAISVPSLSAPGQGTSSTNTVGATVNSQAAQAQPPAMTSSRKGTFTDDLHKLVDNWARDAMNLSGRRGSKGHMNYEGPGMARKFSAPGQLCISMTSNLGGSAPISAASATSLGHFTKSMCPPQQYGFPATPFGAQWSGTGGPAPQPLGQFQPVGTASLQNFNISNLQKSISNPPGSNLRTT
Sequence of Serine/threonine-protein kinase Nek2 (P51955 whole entry): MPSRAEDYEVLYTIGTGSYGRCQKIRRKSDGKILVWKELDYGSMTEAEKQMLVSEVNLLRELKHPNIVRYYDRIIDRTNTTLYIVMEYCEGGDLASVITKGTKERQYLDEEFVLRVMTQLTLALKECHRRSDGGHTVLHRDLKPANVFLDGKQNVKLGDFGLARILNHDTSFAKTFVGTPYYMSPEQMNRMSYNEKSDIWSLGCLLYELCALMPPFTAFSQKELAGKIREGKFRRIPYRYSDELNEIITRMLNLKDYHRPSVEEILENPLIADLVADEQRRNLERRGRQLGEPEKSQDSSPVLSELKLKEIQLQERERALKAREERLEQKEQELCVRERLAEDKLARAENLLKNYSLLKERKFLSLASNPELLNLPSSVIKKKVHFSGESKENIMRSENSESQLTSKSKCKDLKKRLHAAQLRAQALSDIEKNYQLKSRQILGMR

CN(C)c1ccc(C(=O)Nc2cccc(NC(=O)COc3ccc4c(=O)ccoc4c3)c2)cc1
0.66 µM: [13]
> 10 µM: all other assays above
